Reference: patent US11422132B2, “Peptides and uses thereof for diagnosing and treating myasthenia gravis” (The Regents of the University of California, priority 2016, dated 2022)
“Also recorded” adds a separate entry of the source. Where no end group is shown, it is not given here.

How the values were obtained:
mAb 132A [1] = assay: Western blot of peptide-Fc conjugates with mAb 132A; format: binding, rat; details: Western blot FIG. 13
Description: (§1) A conjugate has been engineered (FIG. 12B) that fuses the chimeric Torpedo-human peptide (SEQ ID NO:27) to an antibody Fc domain.

mAb 198 [2] = assay: Western blot of peptide-Fc conjugates with mAb 198; format: binding, rat; details: Western blot FIG. 13
Description: as §1

mAb 35 [3] = assay: Western blot of peptide-IChBD fusion proteins probed with mAb 35; format: binding, rat; design: key to mAb 35, fold-change in binding relative to Torpedo 39MIR: ‘—’ denotes no binding; details: for mAb 35 binding compared to the Torpedo 39 MIR: human 39MIR triple and quadruple mutants, FIG. 7
mAb 198 [4] = assay: Western blot of peptide-IChBD fusion proteins probed with mAb 198; format: binding, rat; details: for mAb 198 binding compared to its binding to the human 39MIR: human 39MIR mutants, relative to human 39MIR; for mAb 198 binding, result in words: Western blot
Description: (§2) Chitin beads adsorbed with peptide-IChBD fusion proteins were run on an SDS-PAGE gel and transferred to a nitrocellulose membrane and assayed with the four mAbs.
(§3) Chitin beads adsorbed with peptide-IChBD fusion proteins were run on an SDS-PAGE gel and transferred to a nitrocellulose membrane and assayed with the five mAbs.
The Torpedo (SEQ ID NO:9) and human (SEQ ID NO:8) 39MIRs were made by joining the α(1-12), α(65-79), and α(110-115) segments of their respective a subunits with GS linkers. These two MIR mimics were expressed in E. coli as fusion proteins with an IChBD tag to permit peptide collection on chitin beads. These two peptides differ from each other by eight amino acids (FIG. 2). Both mimics were probed with mAb 198. mAb 198, which was derived from rats that had been immunized with human muscle AChR, is a MIR-directed mAb that binds mammalian as well as Torpedo MIR (13,21). It was also able to passively transfer EAMG to rats and binds to both native assembled AChR and to α-subunit fragments in Western blots (22,23). mAb 198 binds to the Torpedo and human MIR peptide mimics in Western blots (FIG. 3). However, mAb 198 binds to the Torpedo mimic about 50 times more strongly than to the human MIR mimic (FIG. 3).
(§4) To explore the effects of individual amino acid substitutions between the Torpedo and the human AChR MIR mimics, eight peptides were prepared, each with an amino acid substituted from the human sequence into the Torpedo sequence. The single amino acid substitutions in the Torpedo MIR were: N10K (SEQ ID NO:11), L12F (SEQ ID NO:12), R66K (SEQ ID NO:13), A70D (SEQ ID NO:14), I75V (SEQ ID NO:15), R79H (SEQ ID NO:16), D111Q (SEQ ID NO:17), and K115H (SEQ ID NO:18).

mAb 132A [5] = assay: Western blot of peptide-IChBD fusion proteins probed with mAb 132A; format: binding, rat; design: key to mAb 132A, fold-change in binding relative to Torpedo 39MIR: ‘—’ denotes no binding; details: for mAb 132A binding compared to the Torpedo 39 MIR: human 39MIR triple and quadruple mutants, FIG. 7
[6] = system: antibodies in human MG serum samples; assay: Dot blot of His-tagged peptides against human MG serum samples; format: binding
Description: Sample were obtained from either normal subjects (i.e., without a diagnosis of myasthenia gravis (MG)) or subjects diagnosed with MG. Samples were contacted with the Torpedo 39MIR peptide (SEQ ID NO:9), the human 39MIR peptide (SEQ ID NO:8), the K10N/V75I/[…] human 39MIR triple mutant (SEQ ID NO:26), or the K10N/D70A/V75I/Q111D human 39MIR quadruple mutant (SEQ ID NO:27).
His-tagged variants of the Torpedo 39MIR, human 39MIR, […] triple mutant, and K10N/D70A/V75I/Q111D quadruple mutant peptides were expressed and probed for binding to antibodies in human MG serum samples. The peptides were dot-blotted onto a membrane and probed for binding to antibodies in our human MG serum library. […] None of the His-tagged peptides bound any antibodies in normal human serum samples (FIG. 11). Although the triple mutant peptide (SEQ ID NO:26) bound better overall to mAb 35, mAb 132A, and mAb 198, the quadruple mutant peptide (SEQ ID NO:27) was better for binding antibodies in MG sera.

mAb 334 = assay: Western blot of peptide-IChBD fusion proteins probed with mAb 334; format: binding, rat; details: Table 1, Western blot of FIG. 5, Torpedo 39MIR single mutants
Procedure: as §3, §4

mAb 35 [7] = assay: Western blot of peptide-IChBD fusion proteins probed with mAb 35; format: binding, rat; details: for mAb 35 binding, result in words: Western blot
Procedure: as §2, §3, §4

mAb 132A [8] = assay: Western blot of peptide-IChBD fusion proteins probed with mAb 132A; format: binding, rat; details: for mAb 132A binding, result in words: Western blot
Procedure: as §2, §3, §4

mAb 132A [9] = details: IChBD fusion; reference 14; read-out: Kd of complex with mAb 132A; cited from earlier work
[10] = system: MIR directed Abs in EAMG sera; details: reference 14; cited from earlier work
[11] = Table 2, Western blot of FIG. 7, human 39MIR multiple mutants
[12] = Table 3, single-substitution human 39MIR mutants
[13] = Table 1, Western blot of FIG. 5, Torpedo 39MIR single mutants

Substance | mAb 35, fold-change in binding relative to Torpedo 39MIR (mAb 35 [3]; [11]) | mAb 198, fold-change in binding relative to Torpedo 39MIR (mAb 198 [4]; [11]) [fold-change] | mAb 132A, fold-change in binding relative to Torpedo 39MIR (mAb 132A [5]; [11]) | binding to antibodies in human MG serum samples ([6]; FIG. 11) | mAb 198 binding, result in words (mAb 198 [4]) | mAb 35 binding, result in words (mAb 35 [7]) | mAb 132A binding, result in words (mAb 132A [8]) | other results
Torpedo peptide-Fc conjugate: Torpedo 39MIR peptide (SEQ ID NO:9) conjugated to a human IgG antibody Fc domain plus hinge (SEHETRLVANLLGGGSLRWNPADYGGIKKIRGSLDYTGK; also: conjugated to human IgG Fc with hinge) |  |  |  |  |  |  |  | binding of mAb 132A to peptide-Fc conjugate (mAb 132A [1]): did not bind; binding of mAb 198 to peptide-Fc conjugate (mAb 198 [2]): did not bind
SEHETRLVANLFGGGSLKWNPADYGGIKKIHGSLDYTGH (synthetic main immunogenic region (MIR) peptide) [K10N/D70A/V75I/Q111D, Human 39MIR quadruple mutant (K10N/D70A/V75I/Q111D)] | 1.70 fold-change | 0.99 | 0.99 fold-change | bound antibodies in the human sera |  |  |  | mAb 35 binding compared to the Torpedo 39 MIR (mAb 35 [3]): 1.70 ×; mAb 198 binding compared to its binding to the human 39MIR (mAb 198 [4]): 11 ×; mAb 132A binding compared to the Torpedo 39 MIR (mAb 132A [5]): 0.99 ×; binding to antibodies in human MG serum samples ([6]; FIG. 11, listed as SEQ ID NO:27): a fraction of Abs in MG patient sera; binding to antibodies in human MG serum samples ([6]; FIG. 11, listed as quadruple mutant peptide): able to bind antibodies in all of our human MG serum samples
SEHETRLVANLLGGGSLRWNPADYGGIKKIRGSLDYTGK [Torpedo 39MIR] | 1.00 fold-change | 1.00 | 1.00 fold-change | did not bind any antibodies | binds; also recorded: able to bind |  |  | mAb 334, fold-change in binding relative to Torpedo 39MIR (mAb 334): 1.00 fold-change; mAb 35, fold-change in binding relative to Torpedo 39MIR (mAb 35 [3]; [12]): 1.00 fold-change; mAb 35, fold-change in binding relative to Torpedo 39MIR (mAb 35 [7]; [13]): 1.00 fold-change; mAb 132A, fold-change in binding relative to Torpedo 39MIR (mAb 132A [8]; [13]): 1.00 fold-change; Kd (mAb 132A [9]): 0.21 nM; adsorption of MIR directed Abs in EAMG sera that block the binding of biotinylated mAb 132A to the Torpedo AChR [10]: able to adsorb all of the MIR directed Abs in EAMG sera; mAb 198, fold-change in binding relative to Torpedo 39MIR (mAb 198 [4]; [13]): 1.00 fold-change; mAb 198, fold-change in binding relative to Torpedo 39MIR (mAb 198 [4]; [12]): 1.00 fold-change; mAb 198 binding to the Torpedo mimic versus the human MIR mimic (mAb 198 [4]; Western blot FIG. 3, more strongly than to the human MIR mimic): about 50 times; mAb 132A, fold-change in binding relative to Torpedo 39MIR (mAb 132A [5]; [12]): 1.00 fold-change
SEHETRLVANLFGGGSLKWNPDDYGGIKKIHGSLDYTGH (synthetic main immunogenic region (MIR) peptide) [K10N/V75I/Q111D, Human 39MIR triple mutant (K10N/V75I/Q111D)] | 2.97 fold-change | 2.52 | 2.46 fold-change | only bound antibodies in one MG serum sample | improved binding | improved binding |  | mAb 35 binding compared to the Torpedo 39 MIR (mAb 35 [3]): 2.97 ×; mAb 198 binding compared to its binding to the human 39MIR (mAb 198 [4]): 28 ×; mAb 198 binding compared to the Torpedo 39 MIR (mAb 198 [4]; human 39MIR triple mutant, FIG. 7): 2.52 ×; mAb 132A binding compared to the Torpedo 39 MIR (mAb 132A [5]): 2.46 ×; binding to antibodies in human MG serum samples ([6]; FIG. 11, listed as K10N/N75I/Q111D): bound antibodies in the human sera
SEHETRLVANLFGGGSLKWNPADYGGVKKIHGSLQYTGH (synthetic main immunogenic region (MIR) peptide) [K10N/D70A, Human 39MIR double mutant (K10N/D70A)] | 0.31 fold-change | 0.72 | 0.16 fold-change |  | restored binding | restored binding | restored binding | 
SEHETRLVANLFGGGSLKWNPDDYGGIKKIHGSLQYTGH (synthetic main immunogenic region (MIR) peptide) [K10N/V75I, Human 39MIR double mutant (K10N/V75I)] | 1.10 fold-change | 1.79 | 1.25 fold-change |  | restored binding | restored binding | restored binding | 
SEHETRLVAKLFGGGSLKWNPDDYGGVKKIHGSLQYTGH (synthetic main immunogenic region (MIR) peptide) [Human 39MIR] | — | 0.09 | — | did not bind any antibodies | binds; also recorded: recognized; also recorded: able to bind | does not bind; also recorded: not recognized; also recorded: did not bind | does not bind; also recorded: not recognized; also recorded: did not bind | mAb 35, fold-change in binding relative to Torpedo 39MIR (mAb 35 [3]; [12]): —; mAb 198, fold-change in binding relative to Torpedo 39MIR (mAb 198 [4]; [12]): 0.02 fold-change; mAb 132A, fold-change in binding relative to Torpedo 39MIR (mAb 132A [5]; [12]): —
SEHETRLVANLFGGGSLKWNPDDYGGVKKIHGSLDYTGH (synthetic main immunogenic region (MIR) peptide) [K10N/Q111D, Human 39MIR double mutant (K10N/Q111D)] | 2.31 fold-change | 1.19 | 1.07 fold-change |  | restored binding | restored binding | restored binding | 
